“Also recorded” adds a separate entry of the source. Marks after values point to notes of the source that are not given here.
Legend:
[1] = test system: Mouse 3 day unilateral ureter obstruction (UUO) model; assay: Mouse 3 day unilateral ureter obstruction (UUO) model, macrophage infiltration by flow cytometry (CD45, F4/80); type: in vivo; conditions: 3 day UUO
Experimental: As a placebo, a solution without active ingredient was used (group 2), and a sham operated group with unligated kidney was used as a positive control (group 1)
The infiltration of macrophages in response to the renal injury was measured in a flow cytometry assay with detection antibodies binding to the pan-leukocyte marker CD45, as well as to the macrophage-specific antigen, F4/80.

log D = type: physicochemical
[2] = test system: Mouse 10 day unilateral ureter obstruction (UUO) model; assay: Mouse 10 day UUO model, histology (αSMA and Sirius Red/Fast Green collagen staining); type: in vivo
Experimental: (§1) The study was performed on male C57/B16J mice (age: 7-8 weeks) that were obtained from Charles River. Mice were anesthetized with continuous inhaled isoflurane, and the left ureter was exposed via a mid-abdominal incision. The mid-ureter was obstructed by two point ligation with silk sutures. The SHAM-operated mouse (n=6) underwent the same procedure except for the obstruction of the left ureter.
(§2) The mice were randomized into four groups (n=10 each group): UUO plus vehicle (10% EtOH/40% PEG/50% water), UUO plus 3 [mg/kg] […] SHP099. Mice were dosed bidaily with vehicle and SHP099. The forth group of mice with UUO was treated once daily with Tivozanib (technical control). At ten days after surgery, mice were euthanized, and kidneys were collected and divided in two parts.
(§3) One part was snap-frozen in liquid nitrogen for RNA analysis. The other part was stored in Davidson's fixative for the preparation of histological sections. Total RNA was isolated from parts of harvested kidneys. Kidney tissue was homogenized and RNA was obtained and transcribed to cDNA. Using TaqMan real time PCR renal mRNA expression of fibrotic markers was analyzed in kidney tissues. For the assessment of fibrosis on the protein level paraffin tissue sections were stained with alpha-smooth muscle actin (αSMA) and Sirius Red/Fast Green Collagen Stainings using standard procedures.
Quantitative measurements of alpha-smooth muscle actin (αSMA)-positive as well as Sirius Red (Collagen) positive areas within the kidneys were obtained by computer image analysis using the Axio Scan Z1 (Zeiss) microscope and the Zen software.
(§4) All data are expressed as means±S.D. Differences between groups were analyzed by one-way ANOVA with Dunnett's corrections for multiple comparisons. Statistical significance was defined as p<0.05.
(§5) After 10 days, the weight of the kidneys was measured, and RNA-markers αSMA, Col1α1, Col3α1, Col4α1 were measured with RT PCR. Further, histological measurements of αSMA (Alpha smooth muscle actin) and Collagen (SR/FG) were carried out.

[3] = test system: Mouse 10 day unilateral ureter obstruction (UUO) model; assay: Mouse 10 day UUO model, renal mRNA expression of fibrotic markers (TaqMan real time PCR); type: in vivo; conditions: for Col1α1 mRNA expression, percentage vs. placebo / Col3α1 mRNA expression, percentage vs. placebo / Col4α1 mRNA expression, percentage vs. placebo / αSMA mRNA expression, percentage vs. placebo: kidney
Experimental: as §1, §2, §3, §4, §5

[4] = test system: mouse renal ischemia reperfusion injury (IRI) model; assay: Mouse uninephrectomy/renal ischemia reperfusion injury (uIRI) model; type: in vivo; conditions: 30 [mg/kg] SHP099 p.o. BID
Experimental: Experiments indicative for acute kidney diseases were carried out in a uninephrectomy/renal ischemia reperfusion injury (uIRI) model (example 3), as e.g. disclosed in Skrypnyk et al (2013).
In a mouse renal ischemia reperfusion injury (IRI) model, uninephrectomy (UNX) with unilateral renal ischemia (RI), was carried out. Therein, one kidney is removed and the remaining kidney undergoes ischemia/reprefusion via renal artery claming, Animals were then treated according to the following groups: […]

[5] = SHP099 3 and 30 mg/kg bidaily, result in words
[6] = Tivozanib once daily (technical control)

Structure (SMILES): CC1(N)CCN(c2cnc(-c3cccc(Cl)c3Cl)c(N)n2)CC1 [SHP099]
- macrophage infiltration ([1]; 100 mg/kg SHP099 BID p.o.): significant, dose-dependent reduction
- log D (log D): 1.7
- αSMA-positive area within the obstructed kidney ([2]; 3 [mg/kg] SHP099 bidaily): significant reduction
- collagen deposition in kidneys ([2]; SHP099 treated, compared to untreated or Tivozanib treated mice, dose not stated): strong and significant reduction
- aSMA-positive area in kidneys ([2]; SHP099 treated, dose not stated): strong and significant reduction
- Collagen content (SR/FG staining) ([2]; both dosages of SHP099 (3 and 30 mg/kg bidaily)): dose dependently and significantly reduced
- collagen RNA expression in kidney (Collagen 1a1, 3a1, 4a1) [3, 5]: strong and very significant reduction; also recorded: dose-dependent reduction
- αSMA RNA expression in kidney [3, 5]: strong and very significant reduction; also recorded: dose-dependent reduction
- Col1α1 mRNA expression, percentage vs. placebo ([3]; 3 [mg/kg] SHP099 bidaily): 77%
- Col3α1 mRNA expression, percentage vs. placebo ([3]; 3 [mg/kg] SHP099 bidaily): 82%
- Col4α1 mRNA expression, percentage vs. placebo ([3]; 3 [mg/kg] SHP099 bidaily): 85%
- αSMA mRNA expression, percentage vs. placebo ([3]; 3 [mg/kg] SHP099 bidaily): 81%
- Col1α1 mRNA expression, percentage vs. placebo ([3]; 30 [mg/kg] SHP099 bidaily): 51%
- Col3α1 mRNA expression, percentage vs. placebo ([3]; 30 [mg/kg] SHP099 bidaily): 54%
- Col4α1 mRNA expression, percentage vs. placebo ([3]; 30 [mg/kg] SHP099 bidaily): 56%
- αSMA mRNA expression, percentage vs. placebo ([3]; 30 [mg/kg] SHP099 bidaily): 47%
- podocyte marker NHPS1 expression [4]: reproducible and strong effects
- serum creatinine [4]: robust reduction
- serum urea [4]: mild reduction

Structure (SMILES): COc1cc2nccc(Oc3ccc(NC(=O)Nc4cc(C)on4)c(Cl)c3)c2cc1OC [Tivozanib]
- macrophage infiltration ([1]; 3 mg/kg Tivozanib QD p.o., in comparison with SHP099): weaker effects
- Collagen content (SR/FG staining) [2, 6]: significantly reduced
- αSMA-positive area within the obstructed kidney [2, 6]: significantly reduced
- Col1α1 mRNA expression, percentage vs. placebo [3, 6]: 62%
- Col3α1 mRNA expression, percentage vs. placebo [3, 6]: 76%
- Col4α1 mRNA expression, percentage vs. placebo [3, 6]: 71%
- αSMA mRNA expression, percentage vs. placebo [3, 6]: 64* %
